Test results taken from the NIST ThermoML archive (doi:10.1016/j.jct.2009.07.002).
± gives the expanded uncertainty stated by the source.

Test: isobaric coefficient of expansion
Conditions: Liquid, DSC with Pressure Shift

CCCCCN [1-pentanamine]
isobaric coefficient of expansion
Conditions | 278.15 K | 288.15 K | 298.15 K | 308.15 K | 318.15 K | 328.15 K | 338.15 K | 348.15 K
5000 kPa | 0.00109 ± 4.6e-05 1/K | 0.00111 ± 4.7e-05 1/K | 0.00112 ± 4.8e-05 1/K | 0.00114 ± 4.8e-05 1/K | 0.00116 ± 4.9e-05 1/K | 0.00118 ± 5e-05 1/K | 0.0012 ± 5.1e-05 1/K | 0.00123 ± 5.2e-05 1/K
10000 kPa | 0.00107 ± 4.5e-05 1/K | 0.00108 ± 4.6e-05 1/K | 0.00109 ± 4.6e-05 1/K | 0.00111 ± 4.7e-05 1/K | 0.00112 ± 4.8e-05 1/K | 0.00114 ± 4.8e-05 1/K | 0.00116 ± 4.9e-05 1/K | 0.00118 ± 5e-05 1/K
15000 kPa | 0.00105 ± 4.5e-05 1/K | 0.00106 ± 4.5e-05 1/K | 0.00107 ± 4.5e-05 1/K | 0.00108 ± 4.6e-05 1/K | 0.00109 ± 4.6e-05 1/K | 0.0011 ± 4.7e-05 1/K | 0.00112 ± 4.7e-05 1/K | 0.00113 ± 4.8e-05 1/K
20000 kPa | 0.00102 ± 4.3e-05 1/K | 0.00104 ± 4.4e-05 1/K | 0.00104 ± 4.4e-05 1/K | 0.00106 ± 4.5e-05 1/K | 0.00106 ± 4.5e-05 1/K | 0.00107 ± 4.5e-05 1/K | 0.00108 ± 4.6e-05 1/K | 0.0011 ± 4.6e-05 1/K
25000 kPa | 0.00101 ± 4.3e-05 1/K | 0.00102 ± 4.3e-05 1/K | 0.00102 ± 4.3e-05 1/K | 0.00103 ± 4.4e-05 1/K | 0.00104 ± 4.4e-05 1/K | 0.00104 ± 4.4e-05 1/K | 0.00105 ± 4.5e-05 1/K | 0.00106 ± 4.5e-05 1/K
30000 kPa | 0.000988 ± 4.2e-05 1/K | 0.000994 ± 4.2e-05 1/K | 0.001 ± 4.2e-05 1/K | 0.00101 ± 4.3e-05 1/K | 0.00101 ± 4.3e-05 1/K | 0.00102 ± 4.3e-05 1/K | 0.00102 ± 4.3e-05 1/K | 0.00103 ± 4.4e-05 1/K
35000 kPa | 0.000969 ± 4.1e-05 1/K | 0.000973 ± 4.1e-05 1/K | 0.000981 ± 4.2e-05 1/K | 0.000988 ± 4.2e-05 1/K | 0.000989 ± 4.2e-05 1/K | 0.000989 ± 4.2e-05 1/K | 0.000993 ± 4.2e-05 1/K | 0.000999 ± 4.2e-05 1/K
40000 kPa | 0.000954 ± 4e-05 1/K | 0.000958 ± 4.1e-05 1/K | 0.000966 ± 4.1e-05 1/K | 0.000968 ± 4.1e-05 1/K | 0.000967 ± 4.1e-05 1/K | 0.000971 ± 4.1e-05 1/K | 0.000972 ± 4.1e-05 1/K | 0.000972 ± 4.1e-05 1/K
45000 kPa | 0.000938 ± 4e-05 1/K | 0.000937 ± 4e-05 1/K | 0.000944 ± 4e-05 1/K | 0.000949 ± 4e-05 1/K | 0.000947 ± 4e-05 1/K | 0.000949 ± 4e-05 1/K | 0.000951 ± 4e-05 1/K | 0.000954 ± 4e-05 1/K
50000 kPa | 0.000921 ± 3.9e-05 1/K | 0.000925 ± 3.9e-05 1/K | 0.000927 ± 3.9e-05 1/K | 0.000929 ± 3.9e-05 1/K | 0.000928 ± 3.9e-05 1/K | 0.000931 ± 4e-05 1/K | 0.00093 ± 3.9e-05 1/K | 0.00093 ± 3.9e-05 1/K
55000 kPa | 0.000895 ± 3.8e-05 1/K | 0.0009 ± 3.8e-05 1/K | 0.000894 ± 3.8e-05 1/K | 0.000898 ± 3.8e-05 1/K | 0.000898 ± 3.8e-05 1/K | 0.000898 ± 3.8e-05 1/K | 0.000899 ± 3.8e-05 1/K | 0.000891 ± 3.8e-05 1/K
